Measurements from paper PMC12055641, “The Study of Antistaphylococcal Potential of Omiganan and Retro-Omiganan Under Flow Conditions” (Probiotics and Antimicrobial Proteins, 2024).
No end group written: not given here.

Experiments:
[1] = system: S. aureus clinical strain 031S
Text: (§1) Clinical S. aureus strains were collected from patients with atopic dermatitis during their visits to the Outpatient Clinic and hospitalization in the Department of Dermatology, Venereology and Allergology at Medical University of Gdańsk (following the approval from the ethics committee, Approval Number NKBBN/242–477/2014). Reference strains of S. aureus ATCC 25923, S. aureus ATCC 33591, S. aureus ATCC 9144, and S. aureus ATCC 12598 were obtained from the American Type Culture Collection. All the strains were stored at − 80 °C in Roti®-Store cryo vials (Carl Roth GmbH, Karlsruhe, Germany) and before the tests were transferred into fresh Mueller–Hinton Medium (BioMaxima, Lublin, Poland) and incubated for 24 h at 37 °C. Subsequently, each bacterial inoculum was seeded on Mueller–Hinton agar plates (BioMaxima) and incubated again for 24 h. The cultures prepared in this way were used in further antimicrobial assays. Minimum inhibitory concentrations (MICs) were determined according to the Clinical and Laboratory Standards Institute recommendations. […] The experiments were conducted on 96-well microtiter plates, with a final volume of 100 μL. Additionally, in the case of daptomycin, the medium was supplemented with Ca^2+ (50 mg/L). Cell densities were adjusted spectrophotometrically (Multiskan™ GO Microplate Spectrophotometer, Thermo Scientific) at 600 nm. The MICs were taken as the lowest drug concentration at which a visible growth of the microorganisms was inhibited. Minimum biofilm eliminating concentrations (MBECs) were determined on 96-well flat-bottomed microtiter polystyrene plates with resazurin (7-hydroxy-3H-phenoxazin-3-one 10-oxide sodium salt) as a cell viability reagent. To do this, the plates were filled with 100 μL of the initial inoculums of bacteria (0.5 × 10^7 CFU/mL) in the Mueller–Hinton broth and incubated for 24 h at 37 °C. […] After 24 h of incubation, 20 μL of resazurin (4 mg/mL) was added to each well and the MBEC values were read. Minimum biofilm inhibitory concentrations (MBICs) were also determined on 96-well flat-bottomed microtiter polystyrene plates as described previously. To do this, 50 μL of the compounds in the concentration range, diluted MHB, were prepared. Subsequently, the 50 μL of the staphylococcal inoculums were added to reach the same density of bacteria as that in the MBEC assay. After 24 h of incubation at 37 °C, the wells were rinsed three times with PBS and the fresh medium (100 μL) with resazurin (0.6 mg/mL) was added. Then, after 1 h of incubation, MBICs were read. […] All experiments were conducted in triplicate.

[2] = system: S. aureus clinical strain 030N
Text: as §1

[3] = system: biofilm of reference and clinical strains of staphylococci (S. aureus); conditions: for mean MBIC (initial values): average over 14 strains, polystyrene 96-well plates, not corrected
Text: as §1

[4] = system: S. aureus clinical strain 009S biofilm
Text: as §1

S. aureus ATCC 25923 = conditions: ATCC 25923, reference strain
Text: as §1

[5] = system: S. aureus ATCC 25923 biofilm; conditions: ATCC 25923, reference strain
Text: as §1

[6] = system: S. aureus clinical strain 060S biofilm
Text: as §1

[7] = system: S. aureus clinical strain 005S biofilm
Text: as §1

[8] = system: S. aureus clinical strain 051N (MRSA) biofilm; conditions: clinical strain 051N biofilm, 24 h
Text: as §1

[9] = system: S. aureus ATCC 12598 biofilm; conditions: ATCC 12598, reference strain
Text: as §1

[10] = system: S. aureus clinical strain 031S biofilm
Text: as §1

[11] = system: reference and clinical strains of staphylococci (S. aureus); conditions: 24 h
Text: as §1

[12] = system: S. aureus clinical strain 060S
Text: as §1

[13] = system: S. aureus ATCC 33591 (MRSA); conditions: ATCC 33591, 24 h
Text: as §1

[14] = system: S. aureus clinical strain 009S
Text: as §1

S. aureus ATCC 12598 = conditions: ATCC 12598, reference strain
Text: as §1

[15] = system: S. aureus clinical strain 005S
Text: as §1

[16] = system: S. aureus ATCC 33591 (MRSA) biofilm; conditions: ATCC 33591, 24 h
Text: as §1

[17] = system: S. aureus clinical strain 043SC (MRSA) biofilm; conditions: clinical strain 043SC biofilm, 24 h
Text: as §1

[18] = system: S. aureus clinical strain 004N (MRSA); conditions: 24 h
Text: as §1

[19] = system: S. aureus clinical strain 015N (MRSA) biofilm; conditions: clinical strain 015N biofilm, 24 h
Text: as §1

[20] = system: S. aureus clinical strain 030N biofilm
Text: as §1

[21] = system: S. aureus clinical strain 004N (MRSA) biofilm; conditions: clinical strain 004N biofilm, 24 h
Text: as §1

[22] = system: S. aureus clinical strain 051N (MRSA); conditions: 24 h
Text: as §1

[23] = system: S. aureus clinical strain 043SC (MRSA); conditions: 24 h
Text: as §1

[24] = system: S. aureus ATCC 9144 biofilm; conditions: ATCC 9144, reference strain
Text: as §1

[25] = system: S. aureus clinical strain 015N (MRSA); conditions: 24 h
Text: as §1

S. aureus ATCC 9144 = conditions: ATCC 9144, reference strain
Text: as §1

S. aureus ATCC 6538 = conditions: ATCC 6538, reference strain
[26] = system: human keratinocytes (HaCaT); type: cell-based; conditions: 24 h
Procedure: To evaluate the cytotoxicity of the peptides (IC50), the classic MTT assay on 96-well plates was performed for human keratinocytes (HaCaT) which were acquired from the ATCC. The assay utilizes colorimetric determination of the cell metabolic activity, and the color intensity reflects the number of live cells that can be measured spectrophotometrically. […] DMSO was added to the control cells at a final concentration of 1.0% (v/v), which was related to the maximum concentration of the solvent compounds used in the experiment. After 24 h of incubation at 37 °C (humidified 5% CO2 incubator) with the peptides, a medium containing 1 mg/mL of MTT was added to the wells up to a final concentration of 0.5 mg/mL. Subsequently, the plates were incubated at 37 °C for 4 h. Then, the medium was aspirated, and the formazan product was solubilized with DMSO. The background absorbance at 630 nm was subtracted from that at 570 nm for each well (Epoch, BioTek Instruments, USA). Six replicates were conducted for each concentration. All experiments were repeated at least twice and the resulting IC50 values were calculated with GraFit 7 software (v. 7.0, Erithacus, Berkley, CA, USA).

[27] = system: S. aureus ATCC 6538 biofilm; conditions: ATCC 6538, reference strain
[28] = system: S. aureus ATCC 6538 biofilm; conditions: ATCC 6538, reference strain; remark: listed apart in the source

Q: What does the source list for KRRWPWWPWRLI-NH2 [Retro-omiganan TFA^−]?
A: MIC [1]: 2 µg/mL; MIC [2]: 16 µg/mL; mean MBEC (initial values) ([3]; 24 h): 40.00 µg/mL; mean MBIC (initial values) [3]: 11.82 µg/mL; MBEC [4]: 16 µg/mL; MBIC [4]: 2 µg/mL; MIC (S. aureus ATCC 25923): 8 µg/mL; MBEC [5]: 128 µg/mL; MBIC [5]: 16 µg/mL; MBEC [6]: 16 µg/mL; MBIC [6]: 1 µg/mL; MBEC [7]: 16 µg/mL; MBIC [7]: 2 µg/mL; MBEC [8]: 32 µg/mL; MBIC [8]: 32 µg/mL; MBEC [9]: 32 µg/mL; MBIC [9]: 16 µg/mL; MBEC [10]: 16 µg/mL; mean MIC (initial values) [11]: 7.18 µg/mL; MIC [12]: 1 µg/mL; MIC [13]: 16 µg/mL; MIC [14]: 1 µg/mL; MIC (S. aureus ATCC 12598): 8 µg/mL; MIC [15]: 0.5 µg/mL; MBEC [16]: 64 µg/mL; MBIC [16]: 16 µg/mL; MBEC [17]: 16 µg/mL; MBIC [17]: 8 µg/mL; MIC [18]: 8 µg/mL; MBEC [19]: 32 µg/mL; MBIC [19]: 16 µg/mL; MBEC [20]: 32 µg/mL; MBIC [20]: 8 µg/mL; MBEC [21]: 64 µg/mL; MBIC [21]: 16 µg/mL; MIC [22]: 8 µg/mL; MIC [23]: 8 µg/mL; MBEC [24]: 32 µg/mL; MBIC [24]: 16 µg/mL; MIC [25]: 8 µg/mL; MIC (S. aureus ATCC 9144): 8 µg/mL; MIC (S. aureus ATCC 6538): 8 µg/mL; IC50 [26]: 29.51 µg/mL; MBIC [27]: 16 µg/mL; MBEC [28]: 64 µg/mL

Q: How did the MIC [1] turn out when ILRWPWWPWRRK-NH2 [Omiganan Cl^−] was run?
A: 1 µg/mL

Q: What about the MIC [2] of the same substance?
A: 16 µg/mL

Q: What about the “mean MBEC (corrected values)” value ([3]; 24 h) of the same substance?
A: 38.86 µg/mL

Q: What about the “mean MBEC (initial values)” value ([3]; 24 h) of the same substance?
A: 45.71 µg/mL

Q: And the “mean MBIC (initial values)” value [3]?
A: 17.46 µg/mL

Q: What about the “mean MBIC (corrected values)” value ([3]; biofilm of reference and clinical strains of staphylococci, 24 h) of the same substance?
A: 14.84 µg/mL

Q: And the MBEC [4]?
A: 32 µg/mL

Q: And the MBIC [4]?
A: 1 µg/mL

Q: What about the MIC (S. aureus ATCC 25923) of the same substance?
A: 16 µg/mL

Q: And the MBEC [5]?
A: 64 µg/mL

Q: And the MBIC [5]?
A: 32 µg/mL

Q: What about the MBEC [6] of the same substance?
A: 16 µg/mL

Q: And the MBIC [6]?
A: 2 µg/mL

Q: And the MBEC [7]?
A: 32 µg/mL

Q: And the MBIC [7]?
A: 1 µg/mL

Q: What about the MBEC [8] of the same substance?
A: 64 µg/mL

Q: What about the MBIC [8] of the same substance?
A: 32 µg/mL

Q: And the MBEC [9]?
A: 64 µg/mL

Q: What about the MBIC [9] of the same substance?
A: 32 µg/mL

Q: And the MBEC [10]?
A: 16 µg/mL

Q: What about the “mean MIC (corrected values)” value [11] of the same substance?
A: 6.77 µg/mL

Q: And the “mean MIC (initial values)” value [11]?
A: 7.96 µg/mL

Q: And the MIC [12]?
A: 1 µg/mL

Q: What about the MIC [13] of the same substance?
A: 16 µg/mL

Q: And the MIC [14]?
A: 0.5 µg/mL

Q: What about the MIC (S. aureus ATCC 12598) of the same substance?
A: 8 µg/mL

Q: And the MIC [15]?
A: 1 µg/mL

Q: And the MBEC [16]?
A: 64 µg/mL

Q: What about the MBIC [16] of the same substance?
A: 32 µg/mL

Q: What about the MBEC [17] of the same substance?
A: 32 µg/mL

Q: What about the MBIC [17] of the same substance?
A: 16 µg/mL

Q: And the MIC [18]?
A: 8 µg/mL

Q: What about the MBEC [19] of the same substance?
A: 64 µg/mL

Q: What about the MBIC [19] of the same substance?
A: 16 µg/mL

Q: And the MBEC [20]?
A: 64 µg/mL

Q: What about the MBIC [20] of the same substance?
A: 16 µg/mL

Q: And the MBEC [21]?
A: 64 µg/mL

Q: And the MBIC [21]?
A: 16 µg/mL

Q: What about the MIC [22] of the same substance?
A: 8 µg/mL

Q: What about the MIC [23] of the same substance?
A: 8 µg/mL

Q: What about the MBEC [24] of the same substance?
A: 32 µg/mL

Q: What about the MBIC [24] of the same substance?
A: 16 µg/mL

Q: And the MIC [25]?
A: 16 µg/mL

Q: And the MIC (S. aureus ATCC 9144)?
A: 4 µg/mL

Q: And the MIC (S. aureus ATCC 6538)?
A: 8 µg/mL

Q: What about the IC50 [26] of the same substance?
A: 63.99 µg/mL

Q: And the MBIC [27]?
A: 32 µg/mL

Q: And the MBEC [28]?
A: 32 µg/mL
